Tests used:
[1] = biological target: IDH1-R132H homodimer enzyme (Homo sapiens (Human), UniProt O75874, R132H); test: In vitro assay IDH1-R132H homodimer, NADPH depletion assay with NADPH/NADP preincubation; assay type: biochemical; settings: 5 μM NADPH and 37.5 μM NADP
Outline: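 Compounds were added from DMSO at 50× final concentration, and the mutant enzyme was incubated 60 min at room temperature after starting with a substrate mix holding NADPH and 5 mM alpha-ketoglutarate. Residual cofactor, read by fluorescence after excess diaphorase and resazurin, reflects enzyme turnover.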

IDH2 R140Q [2] = biological target: T1, IDH2 R140Q (Homo sapiens (Human), UniProt P48735, R140Q); test: In vitro assay for IDH2m R140Q inhibitors, cofactor depletion assay; assay type: biochemical; settings: IDH2 R140Q enzyme
Outline: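 Remaining cofactor measured fluorimetrically: diaphorase/resazurin Stop Mix […], halting the reaction. Before that, mutant enzyme and compound sat 1 h at RT, then substrate mix (4 μM NADPH, 1.6 mM α-KG) was added for 16 h at RT.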

[3] = system: U87MG pLVX-IDH2 R140Q-neo cells; test: U87MG pLVX-IDH2 R140Q-neo cell based assay, 2-HG by LC-MS; settings: Homo sapiens, U-87 MG
HT1080 cells = test: Cellular assay for IDH1m R132C inhibitors, 2-HG by LC-MS in HT1080 cells; assay type: cell-based; settings: Homo sapiens, HT-1080
Outline: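 2-HG levels were measured by LC-MS in culture medium sampled 48 h after compound addition (0.2% DMSO) to HT1080 cells seeded overnight at 5000 cells/well. A CellTiter-Glo luminescence read at 72 h gave cell viability.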

IDH2 R140Q [4] = biological target: T1, IDH2 R140Q; test: In vitro assay for IDH2m R140Q inhibitors, cofactor depletion assay, 16 hr preincubation with NADPH/NADP; assay type: biochemical; settings: read-out: IDH2 R140Q 16 hr NADPH/NADP IC50; 16 hrs preincubation with enzyme, 5 uM NADPH and 750 uM NADP
Source text: The following describes the experimental procedures used to obtain data on column 6 of Table 5.
The reaction is terminated by the addition of a second enzyme, diaphorase, and a corresponding substrate, resazurin. Diaphorase reduces resazurin to the highly fluorescent resorufin with the concomitant oxidation of NADPH to NADP, both halting the IDH2 reaction by depleting the available cofactor pool and facilitating quantitation of the amount of cofactor remaining after a specific time period through quantitative production of an easily detected fluorophore.
The test compound is then incubated for 16 hrs at room temperature with the enzyme and cofactors before starting the IDH2 reaction with the addition of 10 μl of substrate mix containing 8 mM α-KG (final concentration 1.6 mM) in the buffer described above. After a further 1 hour of incubation at room temperature, the reaction is halted and the remaining NADPH measured through conversion of resazurin to resorufin by the addition of 25 μl Stop Mix (36 μg/ml diaphorase enzyme and 60 μM resazurin; in buffer).

T1 sequence (P48735 40-452 R140Q): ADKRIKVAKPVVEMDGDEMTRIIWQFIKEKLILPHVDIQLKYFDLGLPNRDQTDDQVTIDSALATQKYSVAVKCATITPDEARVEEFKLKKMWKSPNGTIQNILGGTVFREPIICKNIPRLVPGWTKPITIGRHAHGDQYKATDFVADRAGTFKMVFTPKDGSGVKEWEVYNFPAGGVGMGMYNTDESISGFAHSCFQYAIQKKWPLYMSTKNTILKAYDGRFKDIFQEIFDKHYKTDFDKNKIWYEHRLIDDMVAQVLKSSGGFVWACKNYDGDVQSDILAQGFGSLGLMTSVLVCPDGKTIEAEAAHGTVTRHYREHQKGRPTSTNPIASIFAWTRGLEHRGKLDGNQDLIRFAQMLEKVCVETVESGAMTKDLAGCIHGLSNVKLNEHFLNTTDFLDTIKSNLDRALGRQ
IDH1-R132H homodimer enzyme, sequence (O75874 whole entry R132H): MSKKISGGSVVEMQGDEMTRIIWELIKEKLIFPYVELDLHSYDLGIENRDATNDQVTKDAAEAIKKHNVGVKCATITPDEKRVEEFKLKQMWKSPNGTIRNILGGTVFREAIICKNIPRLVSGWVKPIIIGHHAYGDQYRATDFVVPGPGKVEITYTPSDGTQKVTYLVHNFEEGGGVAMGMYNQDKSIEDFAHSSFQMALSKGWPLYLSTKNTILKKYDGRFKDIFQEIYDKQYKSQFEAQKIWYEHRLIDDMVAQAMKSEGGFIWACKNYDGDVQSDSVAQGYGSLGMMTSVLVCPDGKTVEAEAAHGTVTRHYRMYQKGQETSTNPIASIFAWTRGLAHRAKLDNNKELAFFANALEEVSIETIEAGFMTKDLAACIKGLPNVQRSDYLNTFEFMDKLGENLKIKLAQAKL

CC(F)(F)c1cccc(-c2nc(NC3CC(F)(F)C3)nc(NC3CC(F)(F)C3)n2)n1 [Compound 187]
IC50 [1]: 100 to 1000 nM
IC50 (IDH2 R140Q [2]): < 50 nM
IC50 [3]: < 50 nM

FC1(F)CCC(Nc2nc(NC3CC4(C3)CC(F)(F)C4)nc(-c3cccc(C(F)(F)F)n3)n2)C1 (stereo not shown) [Compound 191]
IC50 [1]: 100 to 1000 nM
IC50 (IDH2 R140Q [2]): < 50 nM
IC50 (HT1080 cells): 100 to 1000 nM
IC50 [3]: < 50 nM

FC1(F)CCC(Nc2nc(Nc3ccnc(C(F)(F)F)c3)nc(-c3cccc(C(F)(F)F)n3)n2)CC1 [Compound 192]
IC50 [1]: 100 to 1000 nM
IC50 (IDH2 R140Q [2]): < 50 nM
IC50 (HT1080 cells): 100 to 1000 nM
IC50 [3]: < 50 nM

Fc1ccc([C@H]2C[C@@H](Nc3nc(NC4CCC(F)(F)C4)nc(-c4cccc(C(F)(F)F)n4)n3)C2)cc1 (stereo partly shown) [Compound 199]
IC50 [1]: 100 to 1000 nM
IC50 (IDH2 R140Q [2]): < 50 nM
IC50 [3]: < 50 nM

N#Cc1cc(Nc2nc(NC3CC(F)(F)C3)nc(-c3cccc(C(F)(F)F)n3)n2)ccn1 [Compound 213]
IC50 [1]: 50 to 100 nM
IC50 (IDH2 R140Q [2]): < 50 nM
IC50 [3]: < 50 nM

CC(CC#N)Nc1nc(N[C@H](C)C2CC2)nc(-c2cccc(C(F)(F)F)n2)n1 (stereo partly shown) [Compound 214]
IC50 [1]: 100 to 1000 nM
IC50 (IDH2 R140Q [2]): < 50 nM
IC50 [3]: < 50 nM

FC1(F)CCC(Nc2nc(NC3CCN(c4ccccn4)C3)nc(-c3cccc(C(F)(F)F)n3)n2)C1 (stereo not shown) [Compound 222]
IC50 [1]: 100 to 1000 nM
IC50 (IDH2 R140Q [2]): 100 to 1000 nM
IC50 [3]: 100 to 1000 nM

FC1(F)CCC(Nc2nc(NC3CCC(F)(F)CC3)nc(-c3csc(C(F)(F)F)n3)n2)CC1 [Compound 223]
IC50 [1]: 100 to 1000 nM
IC50 (IDH2 R140Q [2]): < 50 nM
IC50 [3]: < 50 nM

FC(F)c1cccc(-c2nc(NC3CCC(F)(F)CC3)nc(NC3CCC(F)(F)CC3)n2)n1 [Compound 224]
IC50 [1]: 100 to 1000 nM
IC50 (IDH2 R140Q [2]): < 50 nM
IC50 (HT1080 cells): 100 to 1000 nM
IC50 [3]: < 50 nM

N#CC1(c2cc(Nc3nc(NCC(F)(F)F)nc(-c4cccc(C(F)(F)F)n4)n3)ccn2)CC1 [Compound 226]
IC50 [1]: 100 to 1000 nM
IC50 (IDH2 R140Q [2]): < 50 nM
IC50 [3]: < 50 nM

FC1(F)CCC(Nc2nc(NC3CCN(c4ncccn4)C3)nc(-c3cccc(C(F)(F)F)n3)n2)C1 (stereo not shown) [Compound 227]
IC50 [1]: 100 to 1000 nM
IC50 (IDH2 R140Q [2]): 100 to 1000 nM
IC50 [3]: 100 to 1000 nM

N#CC1(c2cc(Nc3nc(NC4CC5(C4)CC(F)(F)C5)nc(-c4cccc(C(F)(F)F)n4)n3)ccn2)CC1 [Compound 229]
IC50 [1]: 100 to 1000 nM
IC50 (IDH2 R140Q [2]): < 50 nM
IC50 (HT1080 cells): 100 to 1000 nM
IC50 [3]: < 50 nM

CC(C)(CC#N)Nc1nc(Nc2ccnc(C(C)(F)F)c2)nc(-c2cccc(C(F)(F)F)n2)n1 [Compound 231]
IC50 [1]: 100 to 1000 nM
IC50 (IDH2 R140Q [2]): < 50 nM
IC50 (HT1080 cells): > 1000 nM
IC50 [3]: < 50 nM

FC1(F)CCC(Nc2nc(NC3CCC(F)(F)C3)nc(-c3nccc(C(F)(F)F)n3)n2)C1 (stereo not shown) [Compound 237]
IC50 [1]: 100 to 1000 nM
IC50 (IDH2 R140Q [2]): < 50 nM
IC50 (HT1080 cells): 100 to 1000 nM
IC50 [3]: < 50 nM

CC(C)(C)Nc1nc(Nc2cc(F)cc(C#N)c2)nc(-c2nccc(C(F)(F)F)n2)n1 [Compound 245]
IC50 (IDH2 R140Q [2]): < 50 nM
IC50 (IDH2 R140Q [4]): < 50 nM
IC50 [3]: < 50 nM

CC(C)(C#N)Nc1nc(Nc2ccnc(C(C)(F)F)c2)nc(-c2cccc(C(F)(F)F)n2)n1 [Compound 247]
IC50 [1]: 100 to 1000 nM
IC50 (IDH2 R140Q [2]): < 50 nM
IC50 [3]: < 50 nM

FC1(F)CCC(Nc2nc(NC3CCC(F)(F)C3)nc(-c3cccc(OC(F)(F)F)n3)n2)C1 (stereo not shown) [Compound 252]
IC50 [1]: > 1000 nM
IC50 (IDH2 R140Q [2]): < 50 nM
IC50 [3]: < 50 nM

CC(C#N)Nc1nc(Nc2ccnc(C(C)(F)F)c2)nc(-c2cccc(C(F)(F)F)n2)n1 (stereo not shown) [Compound 253]
IC50 [1]: 100 to 1000 nM
IC50 (IDH2 R140Q [2]): < 50 nM
IC50 [3]: < 50 nM

FC1(F)CC(Nc2nc(NC3CC(F)(F)C3)nc(-c3nccc(C(F)(F)F)n3)n2)C1 [Compound 256]
IC50 [1]: > 1000 nM
IC50 (IDH2 R140Q [2]): < 50 nM
IC50 [3]: < 50 nM

N#CC1(c2cc(Nc3nc(NC4CCC(F)(F)C4)nc(-c4nccc(C(F)(F)F)n4)n3)ccn2)CC1 (stereo not shown) [Compound 261]
IC50 [1]: > 1000 nM
IC50 (IDH2 R140Q [2]): < 50 nM
IC50 [3]: < 50 nM

Fc1ccc([C@H]2C[C@@H](Nc3nc(N[C@H]4C[C@@H](c5ccc(F)cc5)C4)nc(-c4cccc(C(F)(F)F)n4)n3)C2)cc1 [Compound 272]
IC50 [1]: > 1000 nM
IC50 (IDH2 R140Q [2]): 100 to 1000 nM
IC50 (HT1080 cells): 100 to 1000 nM
IC50 [3]: 100 to 1000 nM

FC1(F)CCC(Nc2nc(NC3CCC(F)(F)CC3)nc(-c3nccc(C(F)(F)F)n3)n2)CC1 [Compound 293]
IC50 [1]: > 1000 nM
IC50 (IDH2 R140Q [2]): 50 to 100 nM
IC50 [3]: 50 to 100 nM

— patent publication US10028961B2, “Therapeutically active compounds and their methods of use” (AGIOS PHARMACEUTICALS, INC., priority 2013, dated 2018)
